Source: US11547102B2, “Method for screening saltiness enhancer using saltiness receptor” (NISSIN FOODS HOLDINGS CO., LTD., priority 2017, dated 2023)

Key:
[1] = target: T1, human TMC4 (hTMC4) (Homo sapiens, UniProt Q7Z404); assay: whole cell patch clamp assay using HEK293T cells expressing hTMC4; assay type: cell-based; conditions: 100 μM added to vehicle solution (134 mM NaCl), same cells compared
T1 construct: host or cells: HEK293T
T1 sequence (Q7Z404 1-706 isoform Q7Z404-1): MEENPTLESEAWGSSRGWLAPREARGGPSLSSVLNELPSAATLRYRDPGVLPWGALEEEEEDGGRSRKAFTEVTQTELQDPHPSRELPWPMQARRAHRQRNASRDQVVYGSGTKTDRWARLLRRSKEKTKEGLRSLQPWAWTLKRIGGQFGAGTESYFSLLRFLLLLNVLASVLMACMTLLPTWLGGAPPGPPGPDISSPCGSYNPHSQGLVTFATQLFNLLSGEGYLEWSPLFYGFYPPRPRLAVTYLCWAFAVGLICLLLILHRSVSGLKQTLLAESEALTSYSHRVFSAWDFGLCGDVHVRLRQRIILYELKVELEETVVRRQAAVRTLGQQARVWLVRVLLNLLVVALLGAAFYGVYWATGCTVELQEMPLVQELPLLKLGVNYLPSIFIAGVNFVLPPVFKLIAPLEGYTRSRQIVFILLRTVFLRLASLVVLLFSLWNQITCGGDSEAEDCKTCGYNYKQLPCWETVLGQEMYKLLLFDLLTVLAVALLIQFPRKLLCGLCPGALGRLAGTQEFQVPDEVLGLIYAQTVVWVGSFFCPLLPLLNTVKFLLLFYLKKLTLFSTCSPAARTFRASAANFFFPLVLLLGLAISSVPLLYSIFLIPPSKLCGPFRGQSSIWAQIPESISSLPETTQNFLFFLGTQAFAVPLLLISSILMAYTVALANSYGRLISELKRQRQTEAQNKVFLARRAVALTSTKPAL
Method: In order to observe influence of a known salty taste enhancer on TMC4, the whole cell patch clamp assay (whole cell recording) was performed by using HEK293T cells expressing human TMC4 (hTMC4).
The whole cell patch clamp assay was performed in the same manner as in Example 2 except for the following:
1) HEK293T cells expressing human TMC4 (hTMC4) were used; and
2) a 134 mM NaCl solution was used as a vehicle solution, an extracellular fluid obtained by adding 100 μM arginine hydrochloride (Arg-HCl) as a salty taste enhancer to the vehicle solution, and an extracellular fluid (control not enhancing salty taste) obtained by adding 100 μM sucrose or maltose to the vehicle solution were used. A Cl^− current flowing via TMC4 was compared.
As for the hTMC4, a clone of Accession No. BC025323 was purchased from Dharmacon, and inserted between restriction enzyme EcoR1 site and Not1 site of the plasmid pIRES2-AcGFP1 to create an expression construct in the same manner as that for the mTMC4.

[2] = target: T2, mouse TMC4 (mTMC4) (Mus musculus, UniProt Q7TQ65); assay: whole cell patch clamp assay using HEK293T cells expressing mTMC4; assay type: cell-based; conditions: 100 μM added to the 134 mM NaCl buffer, 25° C.
T2 construct: expressed in transfected cells; host or cells: HEK293T
T2 sequence (Q7TQ65 1-694): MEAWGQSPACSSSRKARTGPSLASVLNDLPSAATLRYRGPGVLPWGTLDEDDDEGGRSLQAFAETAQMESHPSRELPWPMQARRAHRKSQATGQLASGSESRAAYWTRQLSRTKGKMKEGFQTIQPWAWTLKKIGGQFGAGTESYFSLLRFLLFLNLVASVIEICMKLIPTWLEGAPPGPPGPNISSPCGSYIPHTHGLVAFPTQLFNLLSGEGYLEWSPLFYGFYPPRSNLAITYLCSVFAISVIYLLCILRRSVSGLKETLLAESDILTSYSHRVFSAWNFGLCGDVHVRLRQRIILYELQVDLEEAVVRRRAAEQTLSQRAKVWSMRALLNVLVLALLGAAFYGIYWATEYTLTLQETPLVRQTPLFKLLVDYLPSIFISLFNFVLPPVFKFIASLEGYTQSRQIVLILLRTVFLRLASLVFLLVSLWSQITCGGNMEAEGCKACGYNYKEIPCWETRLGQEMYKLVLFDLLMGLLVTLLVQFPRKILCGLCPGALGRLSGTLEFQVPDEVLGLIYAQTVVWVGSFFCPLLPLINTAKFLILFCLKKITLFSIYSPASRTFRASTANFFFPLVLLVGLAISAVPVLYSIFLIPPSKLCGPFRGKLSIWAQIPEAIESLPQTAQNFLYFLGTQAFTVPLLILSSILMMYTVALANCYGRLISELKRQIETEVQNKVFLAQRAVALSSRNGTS
Method: In order to check electrophysiological properties of TMC4, a whole cell patch clamp assay (whole cell recording) was performed using HEK293T cells expressing TMC4.
In order to express mouse TMC4 (mTMC4) in HEK293T cells, a plasmid vector pIRES2-AcGFP1 (Clontech Laboratories, Inc.) having a CMV promoter was used. An expression construct in which mTMC4 (sequence of Accession No. NM_181820.2 cloned from cDNA derived from mouse circumvallate papillae epithelium) was inserted between restriction enzyme EcoR1 site and Not1 site of pIRES2-AcGFP1 was transfected at a ratio of 1 μg/35 mm dish. As a transfection reagent, Lipofectamine™ LTX Reagent with PLUS & Reagent™ (Thermo Fisher Scientific K.K.) was used. […]
In the whole cell patch clamp recording using the HEK293T cells, Axopatch 200B (Molecular Devices, LLC.) was used as an amplifier, and digital data was obtained from Digidata 1550 (Axon Instruments, Union City, Calif., USA). The obtained data was analyzed using software pCLAMP 10.2 (Axon Instruments). […]
The measurement was performed with the membrane potential of mTMC4-expressing cells fixed at −60 mV with extracellular fluids successively perfused. A step pulse (400 ms) from −100 mV to +100 mV at intervals of 10 mV was applied to each extracellular fluid to create an I-V curve, and thus, voltage-current characteristics of mTMC4 obtained with different extracellular fluids were measured. […]

| Compound | Cl- current flowing via TMC4 [1] | outward Cl- current [2] |
| --- | --- | --- |
| OC[C@H]1O[C@H](O[C@H]2[C@H](O)[C@@H](O)C(O)O[C@@H]2CO)[C@H](O)[C@@H](O)[C@@H]1O (mixture of isomers) [maltose] | did not change |  |
| O=C(O)c1cc([N+](=O)[O-])ccc1NCCCc1ccccc1 [NPPB, 5-Nitro-2-(3-phenylpropylamino) benzoic acid] |  | completely disappeared |
| Cl.N=C(N)NCCC[C@H](N)C(=O)O [arginine hydrochloride] | increased |  |
| OC[C@H]1O[C@@](CO)(O[C@H]2O[C@H](CO)[C@@H](O)[C@H](O)[C@H]2O)[C@@H](O)[C@@H]1O [sucrose] | did not change |  |
